Patent US11311542B2, “Inhibitors of cyclin dependent kinase 7 (CDK7)” (Syros Pharmaceuticals, Inc., priority 2018, dated 2022)

Assays:
[1] = biological target: CDK7/Cyclin H/MAT1 complex (Homo sapiens, UniProt P50613); assay: CDK7 kinase inhibition assay (Caliper/LabChip EZ Reader)
Description: (§1) Compounds described herein were assayed for inhibition of CDK7, CDK9, CDK12, and CDK2 activity at Biortus Biosciences (Jiangyin, Jiangsu Province, P.R. of China) using kinase assays for each CDK developed with a Caliper/LabChip EZ Reader (Perkin Elmer, Waltham, Mass.).
(§2) Furthermore, the CDK9 inhibition assay used CDK9/Cyclin T1 complex (8 nM) and “5-FAM-CDK9tide” peptide substrate (2 μM, synthesized fluorophore-labeled peptide with the following sequence: 5-FAM-GSRTPMY-NH2 (SEQ ID NO:2) where 5-FAM is defined above and NH2 signifies a C-terminal amide) with 10 mM MgCl2 in the buffer composition listed above. The CDK12 inhibition assay used CDK12 (aa686-1082)/Cyclin K complex (50 nM) and “5-FAM-CDK9tide” (2 μM) as defined above, with 2 mM MgCl2 in the buffer composition above. Additionally, the CDK2 inhibition assay used CDK2/Cyclin E1 complex (0.5 nM) and “5-FAM-CDK7tide” (2 μM; defined above) with 2 mM MgCl2 in the buffer composition above.
(§3) The incubation period at 27° C. for each CDK inhibition assay was chosen such that the fraction of phosphorylated peptide product produced in each assay, relative to the total peptide concentration, was approximately 20% (±5%) for the uninhibited kinase (35 min. for CDK7, 35 min. for CDK2, 3 hr. for CDK12, 15 min. for CDK9).

[2] = biological target: CDK12 (aa686-1082)/Cyclin K complex (Homo sapiens, UniProt Q9NYV4); assay: CDK12 kinase inhibition assay (Caliper/LabChip EZ Reader)
COV318 cells = assay: Inhibition of cell proliferation (CyQUANT Direct), COV318; assay type: cell-based, human; conditions: Homo sapiens, COV318, 72-hour
COV504 cells = assay: Inhibition of cell proliferation (CyQUANT Direct), COV504; assay type: cell-based, human; conditions: Homo sapiens, COV504, 72-hour
MB453 cells = assay: Inhibition of cell proliferation (CyQUANT Direct), MB453; assay type: cell-based, human; conditions: Homo sapiens, MB453, 72-hour
CDK2/Cyclin E1 complex = CDK2/Cyclin E1 complex (Homo sapiens, UniProt P24941); assay: CDK2 kinase inhibition assay (Caliper/LabChip EZ Reader)
Description: as §1, §2, §3

CDK9/Cyclin T1 complex = CDK9/Cyclin T1 complex (Homo sapiens, UniProt P50750); assay: CDK9 kinase inhibition assay (Caliper/LabChip EZ Reader)
CDK9/Cyclin T1 complex, sequence (P50750 whole entry): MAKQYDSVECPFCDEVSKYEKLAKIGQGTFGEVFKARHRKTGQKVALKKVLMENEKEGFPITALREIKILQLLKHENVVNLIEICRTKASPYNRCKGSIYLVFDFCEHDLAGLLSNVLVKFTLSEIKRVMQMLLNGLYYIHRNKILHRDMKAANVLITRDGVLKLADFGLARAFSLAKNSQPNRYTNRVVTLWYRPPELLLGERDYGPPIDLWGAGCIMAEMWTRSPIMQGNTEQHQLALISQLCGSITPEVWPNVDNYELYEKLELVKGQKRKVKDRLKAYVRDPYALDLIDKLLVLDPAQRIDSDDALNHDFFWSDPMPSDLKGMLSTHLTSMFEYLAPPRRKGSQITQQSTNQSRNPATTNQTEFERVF
CDK9/Cyclin T1 complex, sequence (O60563 whole entry partner): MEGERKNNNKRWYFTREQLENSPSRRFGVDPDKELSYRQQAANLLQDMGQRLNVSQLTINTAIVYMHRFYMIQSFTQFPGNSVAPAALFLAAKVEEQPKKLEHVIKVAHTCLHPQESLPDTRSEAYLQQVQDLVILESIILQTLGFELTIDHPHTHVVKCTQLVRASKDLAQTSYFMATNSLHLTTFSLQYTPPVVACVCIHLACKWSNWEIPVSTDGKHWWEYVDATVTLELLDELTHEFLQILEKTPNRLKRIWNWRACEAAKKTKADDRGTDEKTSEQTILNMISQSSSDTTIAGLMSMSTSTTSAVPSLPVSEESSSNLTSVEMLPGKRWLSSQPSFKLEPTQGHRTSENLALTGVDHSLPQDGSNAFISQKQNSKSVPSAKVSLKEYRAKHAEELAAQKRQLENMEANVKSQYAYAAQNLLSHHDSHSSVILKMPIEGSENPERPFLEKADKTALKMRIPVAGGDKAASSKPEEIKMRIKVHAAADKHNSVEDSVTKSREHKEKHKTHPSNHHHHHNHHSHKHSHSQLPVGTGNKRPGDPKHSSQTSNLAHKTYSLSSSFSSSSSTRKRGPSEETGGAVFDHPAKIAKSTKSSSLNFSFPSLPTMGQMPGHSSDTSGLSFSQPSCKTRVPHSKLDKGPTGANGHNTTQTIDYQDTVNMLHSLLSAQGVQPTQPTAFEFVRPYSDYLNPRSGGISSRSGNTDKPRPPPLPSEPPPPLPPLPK

HCC70 cells = assay: Inhibition of cell proliferation (CyQUANT Direct), HCC70; assay type: cell-based, human; conditions: Homo sapiens, HCC70, 72-hour

CDK12 (aa686-1082)/Cyclin K complex, sequence (Q9NYV4 686-1082): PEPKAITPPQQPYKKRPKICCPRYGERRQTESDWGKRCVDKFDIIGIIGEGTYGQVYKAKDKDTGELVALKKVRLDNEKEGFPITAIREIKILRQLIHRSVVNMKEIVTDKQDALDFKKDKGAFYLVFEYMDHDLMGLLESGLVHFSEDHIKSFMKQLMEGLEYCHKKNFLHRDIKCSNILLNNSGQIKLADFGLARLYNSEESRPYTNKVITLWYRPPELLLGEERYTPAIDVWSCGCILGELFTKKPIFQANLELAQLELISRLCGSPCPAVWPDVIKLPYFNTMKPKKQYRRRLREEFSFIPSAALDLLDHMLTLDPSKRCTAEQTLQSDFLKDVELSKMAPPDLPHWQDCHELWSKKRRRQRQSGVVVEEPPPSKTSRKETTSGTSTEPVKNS
CDK12 (aa686-1082)/Cyclin K complex, sequence (O75909 whole entry partner, the tested form may be a part): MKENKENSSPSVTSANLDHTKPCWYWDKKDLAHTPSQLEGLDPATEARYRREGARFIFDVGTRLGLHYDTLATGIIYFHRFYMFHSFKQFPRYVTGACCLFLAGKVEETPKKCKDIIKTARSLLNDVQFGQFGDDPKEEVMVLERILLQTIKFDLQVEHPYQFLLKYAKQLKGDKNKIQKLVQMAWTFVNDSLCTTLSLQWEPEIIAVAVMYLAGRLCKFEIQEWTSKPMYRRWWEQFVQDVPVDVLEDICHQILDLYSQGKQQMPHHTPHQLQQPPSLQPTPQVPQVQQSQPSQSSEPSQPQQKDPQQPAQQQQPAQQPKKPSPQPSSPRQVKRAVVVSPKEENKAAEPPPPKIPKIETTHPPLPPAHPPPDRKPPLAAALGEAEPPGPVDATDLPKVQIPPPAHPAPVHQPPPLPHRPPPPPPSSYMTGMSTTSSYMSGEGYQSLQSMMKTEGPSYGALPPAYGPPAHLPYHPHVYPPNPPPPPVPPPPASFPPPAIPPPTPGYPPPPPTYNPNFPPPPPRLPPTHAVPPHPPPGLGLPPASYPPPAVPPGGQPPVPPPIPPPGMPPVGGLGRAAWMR
CDK7/Cyclin H/MAT1 complex, sequence (P50613 whole entry, the tested form may be a part): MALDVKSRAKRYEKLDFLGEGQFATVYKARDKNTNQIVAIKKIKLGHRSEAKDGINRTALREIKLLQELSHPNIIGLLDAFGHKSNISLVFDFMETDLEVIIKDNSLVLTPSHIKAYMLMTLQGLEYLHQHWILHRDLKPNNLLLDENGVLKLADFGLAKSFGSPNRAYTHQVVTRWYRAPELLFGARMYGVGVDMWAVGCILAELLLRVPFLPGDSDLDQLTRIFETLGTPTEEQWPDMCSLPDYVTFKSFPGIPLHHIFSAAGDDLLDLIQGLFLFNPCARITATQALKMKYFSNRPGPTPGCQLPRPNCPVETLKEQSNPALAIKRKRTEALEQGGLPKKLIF
CDK7/Cyclin H/MAT1 complex, sequence (P51946 whole entry partner, the tested form may be a part): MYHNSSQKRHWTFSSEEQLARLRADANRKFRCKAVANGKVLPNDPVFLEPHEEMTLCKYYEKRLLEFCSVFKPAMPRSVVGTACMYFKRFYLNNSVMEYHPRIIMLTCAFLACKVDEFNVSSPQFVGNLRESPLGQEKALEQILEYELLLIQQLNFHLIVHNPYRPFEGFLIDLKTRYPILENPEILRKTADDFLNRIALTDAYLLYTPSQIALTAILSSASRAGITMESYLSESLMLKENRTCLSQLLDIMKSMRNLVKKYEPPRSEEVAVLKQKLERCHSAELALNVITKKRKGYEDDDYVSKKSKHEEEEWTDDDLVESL
CDK7/Cyclin H/MAT1 complex, sequence (P51948 whole entry partner, the tested form may be a part): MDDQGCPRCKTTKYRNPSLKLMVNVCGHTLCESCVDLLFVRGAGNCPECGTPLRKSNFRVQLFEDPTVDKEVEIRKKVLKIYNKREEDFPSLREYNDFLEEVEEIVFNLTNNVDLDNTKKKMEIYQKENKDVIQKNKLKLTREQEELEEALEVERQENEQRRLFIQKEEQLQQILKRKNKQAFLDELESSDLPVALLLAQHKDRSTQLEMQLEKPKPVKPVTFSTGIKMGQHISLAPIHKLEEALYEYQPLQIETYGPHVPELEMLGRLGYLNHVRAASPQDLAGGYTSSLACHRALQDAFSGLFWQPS

Cc1noc(-c2ccc3c(-c4nc(N[C@H]5CCCNC5)ncc4C(F)(F)F)c[nH]c3n2)n1 [Compound 136, 4-[6-(3-methyl-1,2,4-oxadiazol-5-yl)-1H-pyrrolo[2,3-b]pyridin-3-yl]-N-[(3S)-3-piperidyl]-5-(trifluoromethyl)pyrimidin-2-amine]
IC50 [1]: < 30 nM
IC50 [2]: > 500 nM
IC50 (COV318 cells): > 1000 nM
IC50 (COV504 cells): < 100 nM
IC50 (MB453 cells): < 100 nM
IC50 (CDK2/Cyclin E1 complex): > 500 nM
IC50 (CDK9/Cyclin T1 complex): > 500 nM
IC50 (HCC70 cells): < 100 nM

Cc1noc(C)c1-c1ccc2c(-c3nc(N[C@@H]4CNC[C@H](O)C4)ncc3C(F)(F)F)n[nH]c2n1 [Compound 146, (3R, 5S)-5-[[4-[6-(3,5-dimethylisoxazol-4-yl)-1H-pyrazolo[3,4-b]pyridin-3-yl]-5-(trifluoromethyl)pyrimidin-2-yl]amino]piperidin-3-ol]
IC50 [1]: < 30 nM
IC50 [2]: > 500 nM
IC50 (COV318 cells): > 1000 nM
IC50 (COV504 cells): 100 to 500 nM
IC50 (MB453 cells): 100 to 500 nM
IC50 (CDK2/Cyclin E1 complex): > 500 nM
IC50 (CDK9/Cyclin T1 complex): > 500 nM
IC50 (HCC70 cells): 500 to 1000 nM

Cc1nc(-c2ccc3c(-c4nc(N[C@H]5CC[C@H](C)NC5)ncc4C(F)(F)F)c[nH]c3n2)no1 [Compound 162, 4-[6-(5-methyl-1,2,4-oxadiazol-3-yl)-1H-pyrrolo[2,3-b]pyridin-3-yl]-N-[(3S,6S)-6-methyl-3-piperidyl]-5-(trifluoromethyl)pyrimidin-2-amine]
IC50 [1]: < 30 nM
IC50 [2]: > 500 nM
IC50 (COV318 cells): > 1000 nM
IC50 (COV504 cells): < 100 nM
IC50 (MB453 cells): 500 to 1000 nM
IC50 (CDK2/Cyclin E1 complex): > 500 nM
IC50 (CDK9/Cyclin T1 complex): > 500 nM
IC50 (HCC70 cells): 100 to 500 nM

FC(F)(F)c1cnc(N[C@H]2CCCNC2)nc1-c1c[nH]c2cc(-c3cnco3)ccc12 [Compound 111, (S)-4-(6-(oxazol-5-yl)-1H-indol-3-yl)-N-(piperidin-3-yl)-5-(trifluoromethyl)pyrimidin-2-amine]
IC50 [1]: < 30 nM
IC50 [2]: > 500 nM
IC50 (COV318 cells): 100 to 500 nM
IC50 (COV504 cells): < 100 nM
IC50 (MB453 cells): 100 to 500 nM
IC50 (CDK2/Cyclin E1 complex): > 500 nM
IC50 (CDK9/Cyclin T1 complex): > 500 nM
IC50 (HCC70 cells): 100 to 500 nM

CNC(=O)[C@H]1CNC[C@@H](Nc2ncc(C(F)(F)F)c(-c3c[nH]c4cc(-c5c(C)noc5C)ccc34)n2)C1 [Compound 113]
IC50 [1]: < 30 nM
IC50 [2]: > 500 nM
IC50 (COV318 cells): > 1000 nM
IC50 (COV504 cells): 500 to 1000 nM
IC50 (MB453 cells): 100 to 500 nM
IC50 (CDK2/Cyclin E1 complex): > 500 nM
IC50 (CDK9/Cyclin T1 complex): > 500 nM
IC50 (HCC70 cells): 500 to 1000 nM

Cc1noc(C)c1-c1ccc2c(-c3nc(N[C@H]4CCC(C)(C)NC4)ncc3C(F)(F)F)c[nH]c2c1 [Compound 104, (S)-4-(6-(3,5-dimethylisoxazol-4-yl)-1H-indol-3-yl)-N-(6,6-dimethylpiperidin-3-yl)-5-(trifluoromethyl)pyrimidin-2-amine]
IC50 [1]: < 30 nM
IC50 [2]: > 500 nM
IC50 (COV318 cells): 100 to 500 nM
IC50 (COV504 cells): < 100 nM
IC50 (MB453 cells): < 100 nM
IC50 (CDK2/Cyclin E1 complex): > 500 nM
IC50 (CDK9/Cyclin T1 complex): > 500 nM
IC50 (HCC70 cells): < 100 nM

Cc1noc(C)c1-c1ccc2c(-c3nc(N[C@H]4CCC(C)(C)NC4)ncc3C(F)(F)F)c[nH]c2n1 [Compound 116]
IC50 [1]: < 30 nM
IC50 [2]: > 500 nM
IC50 (COV318 cells): < 100 nM
IC50 (COV504 cells): < 100 nM
IC50 (MB453 cells): < 100 nM
IC50 (CDK2/Cyclin E1 complex): > 500 nM
IC50 (CDK9/Cyclin T1 complex): > 500 nM
IC50 (HCC70 cells): < 100 nM

Cc1noc(C)c1-c1ccc2c(-c3nc(N[C@@H]4CNC[C@H](O)C4)ncc3C(F)(F)F)c[nH]c2c1 [Compound 105, (3R,5S)-5-[[4-[6-(3,5-dimethylisoxazol-4-yl)-1H-indol-3-yl]-5-(trifluoromethyl)pyrimidin-2-yl]amino]piperidin-3-ol]
IC50 [1]: < 30 nM
IC50 [2]: > 500 nM
IC50 (COV318 cells): 500 to 1000 nM
IC50 (COV504 cells): 100 to 500 nM
IC50 (MB453 cells): 100 to 500 nM
IC50 (CDK2/Cyclin E1 complex): > 500 nM
IC50 (CDK9/Cyclin T1 complex): > 500 nM
IC50 (HCC70 cells): < 100 nM

Cn1nnnc1-c1ccc2c(-c3nc(N[C@H]4CCCNC4)ncc3C(F)(F)F)c[nH]c2c1 [Compound 122, 4-[6-(1-methyltetrazol-5-yl)-1Hindol-3-yl]-N-[(3S)-3-piperidyl]-5-(trifluoromethyl)pyrimidin-2-amine]
IC50 [1]: < 30 nM
IC50 [2]: > 500 nM
IC50 (COV318 cells): > 1000 nM
IC50 (COV504 cells): < 100 nM
IC50 (MB453 cells): < 100 nM
IC50 (CDK2/Cyclin E1 complex): > 500 nM
IC50 (CDK9/Cyclin T1 complex): > 500 nM
IC50 (HCC70 cells): 100 to 500 nM

Cc1nocc1-c1ccc2c(-c3nc(N[C@@H]4CNC[C@H](O)C4)ncc3C(F)(F)F)c[nH]c2n1 [Compound 148, (3R,5S)-5-[[4-[6-(3-methylisoxazol-4-yl)-1H-pyrrolo[2,3-b]pyridin-3-yl]-5-(trifluoromethyl)pyrimidin-2-yl]amino]piperidin-3-ol]
IC50 [1]: < 30 nM
IC50 [2]: > 500 nM
IC50 (COV318 cells): > 1000 nM
IC50 (COV504 cells): 500 to 1000 nM
IC50 (MB453 cells): 100 to 500 nM
IC50 (CDK2/Cyclin E1 complex): > 500 nM
IC50 (CDK9/Cyclin T1 complex): > 500 nM
IC50 (HCC70 cells): > 1000 nM

Cc1noc(C)c1-c1ccc2c(-c3nc(N[C@@H]4CNCC(C)(C)C4)ncc3C(F)(F)F)c[nH]c2c1 [Compound 102]
IC50 [1]: < 30 nM
IC50 [2]: > 500 nM
IC50 (COV318 cells): 100 to 500 nM
IC50 (COV504 cells): < 100 nM
IC50 (MB453 cells): < 100 nM
IC50 (CDK2/Cyclin E1 complex): > 500 nM
IC50 (CDK9/Cyclin T1 complex): > 500 nM
IC50 (HCC70 cells): < 100 nM

Cc1noc(-c2ccc3c(-c4nc(N[C@H]5CCCNC5)ncc4C(F)(F)F)c[nH]c3c2)n1 [Compound 121, 4-[6-(3-methyl-1,2,4-oxadiazol-5-yl)-1H-indol-3-yl]-N-[(3S)-3-piperidyl]-5 (trifluoromethyl)pyrimidin-2-amine]
IC50 [1]: < 30 nM
IC50 [2]: > 500 nM
IC50 (COV318 cells): 100 to 500 nM
IC50 (COV504 cells): < 100 nM
IC50 (MB453 cells): < 100 nM
IC50 (CDK2/Cyclin E1 complex): > 500 nM
IC50 (CDK9/Cyclin T1 complex): > 500 nM
IC50 (HCC70 cells): 100 to 500 nM

FC(F)(F)c1cnc(N[C@H]2CCCNC2)nc1-c1c[nH]c2nc(-c3nccs3)ccc12 [Compound 108]
IC50 [1]: < 30 nM
IC50 [2]: > 500 nM
IC50 (COV318 cells): < 100 nM
IC50 (COV504 cells): < 100 nM
IC50 (MB453 cells): < 100 nM
IC50 (CDK2/Cyclin E1 complex): > 500 nM
IC50 (CDK9/Cyclin T1 complex): > 500 nM
IC50 (HCC70 cells): < 100 nM

Cc1nocc1-c1ccc2c(-c3nc(N[C@H]4CCC(C)(C)NC4)ncc3C(F)(F)F)n[nH]c2n1 [Compound 160, (S)—N-(6,6-dimethylpiperidin-3-yl)-4-(6-(3-methylisoxazol-4-yl)-1H-pyrazolo[3,4-b]pyridin-3-yl)-5-(trifluoromethyl)pyrimidin-2-amine]
IC50 [1]: < 30 nM
IC50 [2]: > 500 nM
IC50 (COV318 cells): > 1000 nM
IC50 (COV504 cells): 100 to 500 nM
IC50 (MB453 cells): 100 to 500 nM
IC50 (CDK2/Cyclin E1 complex): > 500 nM
IC50 (CDK9/Cyclin T1 complex): > 500 nM
IC50 (HCC70 cells): > 1000 nM
